The target of data set [1] is T1, Mas-related G-protein coupled receptor member X4 (Homo sapiens, UniProt Q96LA9). Briefly: Antagonist activity at human MRGPRX4 expressed in HEK cells incubated in dark for 1 hr at 37 degree C and then incubated for 30 mins at room temperature in presence of 50 uM of obeticholic acid by HTRF assay. Format: functional, cell-based.
Data set [2] has as its target T1, Mas-related G-protein coupled receptor member X4. Briefly: Antagonist activity at human MRGPRX4 expressed in HEK cells incubated in dark for 1 hr at 37 degree C and then incubated for 30 mins at room temperature in presence of […] bilirubin by HTRF assay. It counts as functional, cell-based. For orientation: TR-FRET usually uses a lanthanide donor and a delayed reading to cut background.

Data set [3] can be described thus: Half life in C57BL/6 mouse at 50 mg/kg, po measured upto 24 hrs by LC-MS/MS analysis. As to conditions: in vivo. Format: ADME, organism-based.
Data set [4] concerns the target T1, Mas-related G-protein coupled receptor member X4. In words: Antagonist activity at human MRGPRX4 expressed in HEK cells incubated in dark for 1 hr at 37 degree C and then incubated for 30 mins at room temperature in presence of 20 uM of deoxycholic acid by HTRF assay. Format: functional, cell-based.
A short description of data set [5]: AUC in C57BL/6 mouse at 50 mg/kg, po measured upto 24 hrs by LC-MS/MS analysis. Format: ADME, organism-based. Further details: route oral, dose 50 mg/kg, time <=24. The note with it: in vivo.
Data set [6] is described as follows: Stability of compound assessed as parent compound remaining after stored for 24 hrs in normal lab light condition at room temperature by LC-MS/MS analysis. It counts as physicochemical.
The nature of data set [7]: Stability of compound assessed as parent compound remaining after stored for 24 hrs in dark at room temperature by LC-MS/MS analysis. It counts as physicochemical.
The target of data set [8] is T1, Mas-related G-protein coupled receptor member X4. In words: Agonist activity at human MRGPRX4 expressed in HEK cells using preincubated compound in light at room temperature for 24 hrs by HTRF assay. It counts as functional, cell-based.
Data set [9] can be described thus: Stability of compound assessed as parent compound remaining after stored for 24 hrs in dark freezer condition by LC-MS/MS analysis. The note with it: read-out: Stabilty. It counts as physicochemical.
The target of data set [10] is T1, Mas-related G-protein coupled receptor member X4. Briefly: Agonist activity at human MRGPRX4 expressed in HEK cells using preincubated compound in dark at room temperature for 24 hrs by HTRF assay. Format: functional, cell-based.
Data set [11] in a line: Stability of compound assessed as parent compound remaining after stored for 24 hrs in blue light condition at room temperature by LC-MS/MS analysis. It counts as physicochemical.
For data set [12], the target named is T1, Mas-related G-protein coupled receptor member X4. In words: Agonist activity at human MRGPRX4 expressed in HEK cells using preincubated compound in blue light at room temperature for 24 hrs by HTRF assay. Format: functional, cell-based.
For data set [13] the target is unchanged. In words: Agonist activity at human MRGPRX4 expressed in HEK cells using preincubated compound in dark freezer condition for 24 hrs by HTRF assay. It counts as functional, cell-based. The note with it: filed as agonist.
For data set [14] the target is unchanged. In words: Antagonist activity at human MRGPRX4 expressed in HEK cells incubated in dark for 1 hr at 37 degree C and then incubated for 30 mins at room temperature in presence of 50 uM of urobilin by HTRF assay. Format: functional, cell-based.
Data set [15] has the same target. In words: Antagonist activity at human MRGPRX4 expressed in HEK cells incubated in dark for 1 hr at 37 degree C and then incubated for 30 mins at room temperature in presence of 10 uM of bilirubin by HTRF assay. It counts as functional, cell-based.
Data set [16] can be described thus: Cmax in C57BL/6 mouse at 50 mg/kg, po measured upto 24 hrs by LC-MS/MS analysis. As to conditions: in vivo. Also noted: route oral, dose 50 mg/kg, time <=24. Format: ADME, organism-based.
The target in data set [17] is T1, Mas-related G-protein coupled receptor member X4. In words: Antagonist activity at human MRGPRX4 expressed in HEK cells incubated in dark for 1 hr at 37 degree C and then incubated for 30 mins at room temperature in presence of 100 uM of conjugated bilirubin by HTRF assay. Format: functional, cell-based.

The source made the active and inactive calls. The calls are words filed in the database; no cut-off is given here.

The results in this text go back to ChEMBL document CHEMBL4806969, “Modulators of mas-related g-protein receptor x4 and related products and methods” (2020).

T1 sequence (Q96LA9 whole entry): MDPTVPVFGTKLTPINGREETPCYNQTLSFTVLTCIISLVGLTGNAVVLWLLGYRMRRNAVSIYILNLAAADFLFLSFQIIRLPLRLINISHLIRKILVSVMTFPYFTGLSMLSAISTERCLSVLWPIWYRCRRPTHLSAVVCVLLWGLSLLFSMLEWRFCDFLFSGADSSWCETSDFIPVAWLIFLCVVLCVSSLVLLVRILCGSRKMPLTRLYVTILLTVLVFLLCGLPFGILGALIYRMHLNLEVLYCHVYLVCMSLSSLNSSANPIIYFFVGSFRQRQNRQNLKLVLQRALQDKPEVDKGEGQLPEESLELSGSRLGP

For the compound `N#Cc1cc(COc2ccc(Cl)cc2Cl)cc(C(=O)O)c1`, the half-inhibitory concentration (IC50) (commonly the midpoint of a concentration-inhibition curve) in data set [1] was 6 nM; in [2] it was under 100 nM.
For `O=C(O)c1cccc(COc2ccc(C(F)(F)F)cc2Cl)c1`, the half-maximal inhibitory concentration (IC50) was under 100 nM in data set [2] and 46 nM in data set [4]. In addition, the half-life (commonly the time in which the quantity being followed falls by half) in [3] is 4.6 h. For the same compound, the AUC (in general, the area under the concentration-time curve, a measure of exposure) at 24 h in data set [5] was determined as 615 µM·h.
Consider `O=C(O)c1cccc(COc2ccc(Cl)cc2Cl)c1`, for which the results for the half-inhibitory concentration (IC50) in [2] and in data set [4] were under 100 nM and 130 nM, respectively. The compound further showed a half-life in [3] of 4.2 h. The exposure (AUC) at 24 h in data set [5] was 376 µM·h.
For the compound `C=CC1=C(C)/C(=C/c2[nH]c(Cc3[nH]c(/C=C4\NC(=O)C(C)=C4C=C)c(C)c3CCC(=O)O)c(CCC(=O)O)c2C)NC1=O` [BILIRUBIN], the Stabilty entry in data set [6], in data set [7] and in data set [11] was “Unstable” throughout. Further, the result in data set [8], in data set [10] and in [12] was inactive. The remaining at 24 h in data set [9] stood at 44%. The result in [13] was Active.
For `CCc1cc(COc2ccc(C(F)(F)F)cc2Cl)nc(C(=O)O)c1`, the IC50 in [2] was under 100 nM; in data set [4], 16 nM. For the same compound, the half-life in data set [3] is 5.4 h. Further, in data set [5], the exposure (AUC) at 24 h came out at 4700 µM·h.
On to `Clc1ccc(OCc2cccc(-c3nnn[nH]3)c2)c(Cl)c1Cl`, for which the concentration for half-maximal inhibition (IC50) was under 100 nM in data set [2] and 6 nM in data set [14].
Take `O=C(O)c1cccc(COc2ccc(Cl)cc2C(F)(F)F)n1`: the values for the IC50 in data set [1] and in data set [2] were 5 nM and under 100 nM, respectively.
Turning to `O=C(O)c1cc(COc2ccc(C(F)(F)F)cc2Cl)ccc1F`, the concentration for half-maximal inhibition (IC50) in data set [2] is under 100 nM. Besides, in [3], the half-life is 4.7 h. For the same compound, the AUC at 24 h in data set [5] was determined as 1070 µM·h.
Turning to `Cc1cc(C(F)(F)F)ccc1OCc1cccc(C(=O)O)c1F`, the half-inhibitory concentration (IC50) was 22 nM in data set [1]; under 100 nM in [2]; 17 nM in [15]; 75 nM in data set [4]; 12 nM in [17]. Besides, the half-life in data set [3] was 4.8 h. The exposure (AUC) at 24 h in data set [5] worked out at 1200 µM·h. Also, in data set [16], the Cmax (usually the highest concentration seen after dosing) came out at 230 µM.
On to `O=C(O)c1cccc(COc2ccc(Cl)c(Cl)c2Cl)c1`, for which the half-inhibitory concentration (IC50) was under 100 nM in [2] and 24 nM in [4]. The compound further gave a half-life in [3] of 4 h. The compound further had an exposure (AUC) at 24 h in [5] of 219 µM·h.
